Results from the supplement of paper PMC11821682.

Assays:
HL-60 = experiment: Cell Health Index (toxicity pseudo-probability over dose series) (index 0-1); higher = more cytotoxic / cell stress;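 further: HL-60 cells exposed 4 h at 37 °C to ten threefold dilutions spanning 5 nM to 100 µM, multiparametric flow cytometry features scored by machine-learning classification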
Danio rerio embryo [1] = experiment: LEL larval photomotor response dark phase 120 hpf
Danio rerio embryo [2] = experiment: LEL embryonic photomotor response 24 hpf
Danio rerio embryo [3] = experiment: BMC10 any morphological effect or mortality at 120 hpf; higher = less toxic
Danio rerio embryo [4] = experiment: BMC10 mortality 24-120 hpf; higher = less toxic
Protocol: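 ZBEscreen: dechorionated Tropical 5D zebrafish embryos were exposed from 4 hpf in 96-well plates (1% DMSO, 28 °C). All compounds were first tested at 100 µM; hits were retested at 0.005-100 µM. Morphology and mortality were scored at 120 hpf and fitted as BMC10 (3-parameter log-logistic, extra risk). The embryonic photomotor response at 24 hpf and the larval photomotor response at 120 hpf are given as lowest effect levels (K-S test, p<0.01). NA = not significant up to 100 µM; NT = not tested.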

Compound	Cell Health Index (HL-60)	LEL larval photomotor response dark phase 120 hpf (Danio rerio embryo [1])	LEL embryonic photomotor response 24 hpf (Danio rerio embryo [2])	BMC10 any morphological effect or mortality (Danio rerio embryo [3])	BMC10 mortality 24-120 hpf (Danio rerio embryo [4])
CCC(C)n1ncn(-c2ccc(N3CCN(c4ccc(OC[C@H]5CO[C@](Cn6cncn6)(c6ccc(Cl)cc6Cl)O5)cc4)CC3)cc2)c1=O (stereo not given in full) [Itraconazole]	0.382	0.41 µM	3.7 µM	0.113 µM	0.276 µM
CC[C@H](C)[C@H]1O[C@]2(CC[C@@H]1C)C[C@@H]1C[C@@H](C/C=C(\C)[C@@H](O[C@H]3C[C@H](OC)[C@@H](O[C@H]4C[C@H](OC)[C@@H](O)[C@H](C)O4)[C@H](C)O3)[C@@H](C)/C=C/C=C3\CO[C@@H]4[C@H](O)C(C)=C[C@@H](C(=O)O1)[C@]34O)O2 [Ivermectin B1a]	0.687	0.41 µM	1.23 µM	0.156 µM	4.04 µM
COc1oc(=O)c2cc(N)ccc2c1Cl [JCP251]	0.306	11.1 µM	100 µM	42.2 µM	71.8 µM
CNc1ccc([N+](=O)[O-])c(Nc2ccc3[nH]ncc3c2)n1 [KRIBB11]	0.372	1.23 µM	11.1 µM	3.27 µM	0.805 µM
O=c1c(O)c(-c2ccc(O)cc2)oc2cc(O)cc(O)c12 [Kaempferol]	0.463	> 100 µM	> 100 µM	10 µM	38.4 µM
CC(C)c1cnn2c(NCc3ccccc3-n3cccn3)nc(OC3CCCNC3)nc12 (stereo not given) [LDC-4297]	0.847	> 100 µM	33.3 µM	15.3 µM	32.8 µM
C=CC(C)(C)c1cc(/C=C/C(=O)c2ccc(O)cc2)c(OC)cc1O [Licochalcone A]	0.828	> 100 µM	3.7 µM	0.64 µM	1.16 µM
Cc1cnc(-c2ccccc2C(C)C)nc1NCc1ccc(-n2ccnn2)cc1 [ML-323]	0.577	> 100 µM	11.1 µM	9.11 µM	10.5 µM
CN(C)CCCNC(=O)c1ccc(-c2cc(O)c3ncccc3c2)cc1 [ML-324]	0.537	> 100 µM	11.1 µM	15.9 µM	15.9 µM
O=C(Nc1cccc(NC(=O)c2cccc(O)c2O)c1)c1cccc(O)c1O [MST-312]	0.688	> 100 µM	100 µM	65.3 µM	74.3 µM
CC1(C)CC[C@]2(C(=O)O)CC[C@]3(C)C(=CC[C@@H]4[C@@]5(C)C[C@@H](O)[C@H](O)C(C)(C)C5CC[C@]43C)[C@H]2C1 (stereo not given in full) [Maslinic acid]	0.494	> 100 µM	> 100 µM	13.3 µM	13.3 µM
Cl.O[C@@H](c1cc(C(F)(F)F)nc2c(C(F)(F)F)cccc12)[C@H]1CCCCN1 [Mefloquine]	0.931	> 100 µM	0.015 µM	8.89 µM	10.7 µM
CC(=O)O[C@]1(C(C)=O)CC[C@H]2[C@@H]3C=C(C)C4=CC(=O)CC[C@]4(C)[C@H]3CC[C@@]21C [Megestryl acetate]	0.449	> 100 µM	11.1 µM	4.08 µM	9.53 µM
CC[C@@]1([C@@H]2O[C@@H]([C@H]3O[C@@](O)(CO)[C@H](C)C[C@@H]3C)C[C@@H]2C)CC[C@H]([C@]2(C)CC[C@]3(C[C@H](O)[C@@H](C)[C@@H]([C@@H](C)[C@@H](OC)[C@H](C)C(=O)[O-])O3)O2)O1.[Na+] [Monensin]	0.493	0.005 µM	> 100 µM	27.5 µM	28.5 µM
COc1c(C)c2c(c(O)c1C/C=C(\C)CCC(=O)O)C(=O)OC2 [Mycophenolic acid]	0.204	> 100 µM	11.1 µM	1.23 µM	1.93 µM
CCCCCCC(=O)CCCCCC/C=C/C[C@@H](O)[C@H](O)[C@@](N)(CO)C(=O)O [Myriocin]	0.324	> 100 µM	> 100 µM	1.03 µM	1.46 µM
CC(C)C(=O)SCCCCCCC(=O)Nc1nc(-c2ccccc2)cs1 [NCH-51]	0.268	> 100 µM	0.41 µM	0.188 µM	0.624 µM
CCCCCCCCCCCCCCCC[n+]1ccn(Cc2ccccc2)c1C.[I-] [NH125 parent]	0.949	> 100 µM	33.3 µM	7.19 µM	8.53 µM

Compound	Cell Health Index (HL-60)	LEL larval photomotor response dark phase 120 hpf (Danio rerio embryo [1])	LEL embryonic photomotor response 24 hpf (Danio rerio embryo [2])	BMC10 any morphological effect or mortality (Danio rerio embryo [3])	BMC10 mortality 24-120 hpf (Danio rerio embryo [4])
CCCCCCCC/C=C\CCCCCCCCCCCCCC(=O)O [Nervonic acid]	0.175	> 100 µM	> 100 µM	30.9 µM	31 µM
CC(=O)Oc1ccccc1C(=O)Nc1ncc([N+](=O)[O-])s1 [Nitazoxanide]	0.723	> 100 µM	> 100 µM	44.9 µM	45.9 µM
N[C@H]1C[C@@H]1c1ccc(-c2cccc(O)c2)cc1 [OG-L002]	0.334	> 100 µM	0.015 µM	3.27 µM	15.4 µM
COc1ccc(C(=O)O[C@H]2[C@H](O[C@@H]3[C@@H](OC(C)=O)[C@H](O[C@H]4C[C@H]5[C@@H]6CC=C7C[C@@H](O)CC[C@]7(C)[C@H]6CC[C@]5(C)[C@@]4(O)[C@H](C)C(=O)CCC(C)C)OC[C@@H]3O)OC[C@@H](O)[C@@H]2O)cc1 [OSW-1]	0.822	0.14 µM	> 100 µM	0.03 µM	0.03 µM
CC1(C)CC[C@]2(C(=O)O)CC[C@]3(C)C(=CC[C@@H]4[C@@]5(C)CC[C@H](O)C(C)(C)[C@@H]5CC[C@]43C)[C@@H]2C1 [Oleanolic acid]	0.354	> 100 µM	> 100 µM	3.43 µM	8.42 µM
COc1c(O)cc2oc(-c3ccccc3)cc(=O)c2c1O [Oroxylin A]	0.234	> 100 µM	> 100 µM	27.2 µM	64.9 µM
O=C1C=CC2=CC=C(OC)C(C/C=C(C)\C)=C2O1 [Osthole]	0.355	> 100 µM	3.7 µM	3.1 µM	8.94 µM
Cc1ccc2c(c1)c1c3n2CCNC3CCC1 (stereo not given) [Pirlindole]	0.298	> 100 µM	33.3 µM	5.42 µM	12 µM
CCOC(=O)c1ccc(OCCC2CCN(c3ccc(C)nn3)CC2)cc1 [Pirodavir]	0.528	> 100 µM	3.7 µM	2.02 µM	1.43 µM
Cc1cc(CCCOc2c(C)cc(-c3noc(C(F)(F)F)n3)cc2C)on1 [Pleconaril]	0.48	> 100 µM	0.41 µM	1.15 µM	6.8 µM
CCc1nc(N)nc(N)c1-c1ccc(Cl)cc1 [Pyrimethamine]	0.324	> 100 µM	100 µM	3.56 µM	30 µM
COc1ccc2nc3cc(Cl)ccc3c(Nc3cc(CN4CCCC4)c(O)c(CN4CCCC4)c3)c2n1.O=P(O)(O)O.O=P(O)(O)O.O=P(O)(O)O.O=P(O)(O)O [Pyronaridine]	0.929	> 100 µM	3.7 µM	1.18 µM	3.65 µM
COc1ccccc1NC(=O)c1ccccc1Sc1ccc([N+](=O)[O-])cc1 [RN-18]	0.491	> 100 µM	11.1 µM	10 µM	11.8 µM
O=C(Nc1cc(C(F)(F)F)ccc1N1CCCCC1)c1ccncc1 [SRPIN340]	0.799	> 100 µM	33.3 µM	0.68 µM	10.3 µM
C[C@H]1O[C@@H](O[C@H]2CC[C@@]3(C)[C@@H](CC[C@]4(C)[C@@H]3C=C[C@]35OC[C@@]6(CCC(C)(C)C[C@H]63)[C@@H](O)C[C@]54C)[C@]2(C)CO)[C@H](O)[C@@H](O[C@@H]2O[C@H](CO)[C@@H](O)[C@H](O)[C@H]2O)[C@H]1O [Saikosaponin A]	0.959	> 100 µM	> 100 µM	> 100 µM	1.46 µM
CN1CCN(CCOc2cc(OC3CCOCC3)c3c(Nc4c(Cl)ccc5c4OCO5)ncnc3c2)CC1 [Saracatinib]	0.695	> 100 µM	100 µM	15.5 µM	45.7 µM
COc1cc2c(c(OC)c1OC)-c1c(cc(OC)c(OC)c1OC)C[C@H](C)[C@H](C)C2 [Schisandrin A]	0.661	> 100 µM	0.015 µM	3.78 µM	3.4 µM
OC1=C2C(C(C=C([C@@](O)([H])C/C=C(C)\C)C2=O)=O)=C(O)C=C1 [Shikonin]	0.884	> 100 µM	3.7 µM	1.08 µM	1.73 µM
